Assay results reported in paper PMC3544079 (MedChemComm, 2011).

How the values were obtained:
Type in all cases: biochemical
[1] = target: T1, S. cerevisiae transketolase (Saccharomyces cerevisiae, UniProt P23254); assay: Inhibition of S. cerevisiae transketolase
T1 sequence (P23254 1-680): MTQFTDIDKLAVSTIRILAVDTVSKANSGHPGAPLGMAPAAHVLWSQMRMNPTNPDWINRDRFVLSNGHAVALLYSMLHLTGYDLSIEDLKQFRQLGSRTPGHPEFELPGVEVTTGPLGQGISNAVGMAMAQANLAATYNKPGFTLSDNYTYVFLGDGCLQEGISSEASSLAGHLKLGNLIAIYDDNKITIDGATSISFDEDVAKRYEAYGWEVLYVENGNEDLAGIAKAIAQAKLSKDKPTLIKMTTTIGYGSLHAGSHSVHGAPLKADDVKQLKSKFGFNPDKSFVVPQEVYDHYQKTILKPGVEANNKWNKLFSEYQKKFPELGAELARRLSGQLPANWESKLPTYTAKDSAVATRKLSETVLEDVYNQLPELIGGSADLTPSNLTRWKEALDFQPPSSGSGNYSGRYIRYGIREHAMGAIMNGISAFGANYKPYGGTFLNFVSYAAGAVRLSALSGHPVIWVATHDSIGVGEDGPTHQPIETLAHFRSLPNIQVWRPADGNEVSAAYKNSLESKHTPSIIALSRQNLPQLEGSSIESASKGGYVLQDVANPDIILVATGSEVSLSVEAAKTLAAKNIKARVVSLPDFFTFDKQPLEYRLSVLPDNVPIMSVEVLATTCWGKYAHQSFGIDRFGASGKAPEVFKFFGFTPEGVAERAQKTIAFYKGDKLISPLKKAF

E. coli DXP synthase = E. coli DXP synthase (Escherichia coli, UniProt P77488); assay: E. coli DXP synthase inhibition, spectrophotometric coupled assay; conditions: with respect to pyruvate
[2] = target: T2, Porcine pyruvate dehydrogenase E1 subunit (Sus scrofa, UniProt P29804); assay: Inhibition of porcine pyruvate dehydrogenase E1 subunit; conditions: pyruvate varied, 0-1.0 mM BAP
T2 sequence (P29804 30-390 limits assumed): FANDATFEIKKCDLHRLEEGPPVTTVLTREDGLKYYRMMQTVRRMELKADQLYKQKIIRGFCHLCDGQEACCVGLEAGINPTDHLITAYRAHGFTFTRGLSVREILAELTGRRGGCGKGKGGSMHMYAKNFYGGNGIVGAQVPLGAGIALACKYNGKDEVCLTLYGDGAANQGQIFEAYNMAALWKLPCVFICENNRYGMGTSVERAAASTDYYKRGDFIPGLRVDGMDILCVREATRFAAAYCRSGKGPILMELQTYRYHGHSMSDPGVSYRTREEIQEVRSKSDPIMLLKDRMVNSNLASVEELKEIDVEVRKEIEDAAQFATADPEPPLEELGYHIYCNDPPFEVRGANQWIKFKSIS

Sequence of E. coli DXP synthase (P77488 whole entry): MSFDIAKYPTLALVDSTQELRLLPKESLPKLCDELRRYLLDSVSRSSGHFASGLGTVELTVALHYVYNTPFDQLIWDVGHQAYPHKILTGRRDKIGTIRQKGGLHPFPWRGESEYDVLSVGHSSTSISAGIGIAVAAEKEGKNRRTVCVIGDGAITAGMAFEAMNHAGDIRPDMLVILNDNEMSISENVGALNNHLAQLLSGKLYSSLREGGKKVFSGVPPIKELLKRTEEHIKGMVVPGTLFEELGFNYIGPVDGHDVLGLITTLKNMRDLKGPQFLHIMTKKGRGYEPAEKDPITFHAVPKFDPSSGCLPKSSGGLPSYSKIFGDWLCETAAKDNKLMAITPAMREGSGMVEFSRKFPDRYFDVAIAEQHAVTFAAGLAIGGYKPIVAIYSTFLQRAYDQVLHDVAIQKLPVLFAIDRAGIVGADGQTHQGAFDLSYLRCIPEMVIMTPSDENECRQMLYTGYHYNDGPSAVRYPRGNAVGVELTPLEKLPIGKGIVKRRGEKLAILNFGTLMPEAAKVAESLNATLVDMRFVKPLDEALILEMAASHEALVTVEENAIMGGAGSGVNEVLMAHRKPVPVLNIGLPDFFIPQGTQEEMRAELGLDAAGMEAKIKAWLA

CCC(=O)P(=O)(O)OC [Compound 4]
Ki [1]: > 1000 µM

COP(=O)([O-])C(C)=O.[Li+] [Compound 1, Methylacetylphosphonate, reference compound]
mode of inhibition (E. coli DXP synthase): competitive inhibitor against pyruvate | Ki [1]: > 1000 µM

CCCC(=O)P(=O)(O)OC [Compound 5]
Ki [1]: > 1000 µM

CCCCOP(=O)([O-])C(C)=O.[Li+] [Compound 3, butylacetylphosphonate]
mode of inhibition (E. coli DXP synthase; listed as BAP): competitive mode of inhibition | mode of inhibition [2]: Competitive inhibition | Ki [1]: > 1000 µM

CCCCC(=O)P(=O)(O)OC [Compound 6]
Ki [1]: > 1000 µM

CCOP(=O)([O-])C(C)=O.[Li+] [Compound 2, Ethylacetylphosphonate]
mode of inhibition (E. coli DXP synthase): competitive mode of inhibition | Ki [1]: > 1000 µM
